Measurements from PubChem BioAssay AID1918942 (Molecular Pharmacology Branch, DTP, NCI, 2023).

Tested on: 743489-274-T-PDC complex spheroid viability
Assay: Anticancer human tumor 743489-274-T-PDC patient-derived renal cell carcinoma cell line growth inhibition
Settings: for IC50: curve of first compound; for viability, T/C: stronger effect = lower value
Procedure, shortened: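 Drug combinations with the LSD1 inhibitor iadademstat tested on tumor cells co-cultured as spheroids with endothelial cells and mesenchymal stem cells. Concentrations descended in half-log increments from clinical Cmax or 10 microM.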

[1] = second compound 0.1 µM, first compound 0.00316 µM
[2] = second compound 0.1 µM, first compound 0.01 µM
[3] = second compound 0.1 µM, first compound 0.0316 µM
[4] = second compound 0.1 µM, first compound 0.1 µM
[5] = second compound 0.316 µM, first compound 0.00316 µM
[6] = second compound 0.316 µM, first compound 0.01 µM
[7] = second compound 0.316 µM, first compound 0.0316 µM
[8] = second compound 0.316 µM, first compound 0.1 µM
[9] = second compound 1 µM, first compound 0.00316 µM
[10] = second compound 1 µM, first compound 0.01 µM
[11] = second compound 1 µM, first compound 0.0316 µM
[12] = second compound 1 µM, first compound 0.1 µM
[13] = second compound 3.16 µM, first compound 0.00316 µM
[14] = second compound 3.16 µM, first compound 0.01 µM
[15] = second compound 3.16 µM, first compound 0.0316 µM
[16] = second compound 3.16 µM, first compound 0.1 µM
[17] = second compound 10 µM, first compound 0.00316 µM
[18] = second compound 10 µM, first compound 0.01 µM
[19] = second compound 10 µM, first compound 0.0316 µM
[20] = second compound 10 µM, first compound 0.1 µM
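Further: spheroids exposed to compounds for 7 days before readout.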
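Wherever viability, T/C is given: 100% = DMSO vehicle control wells.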

COc1cc(Nc2ncc3c(n2)-c2ccc(Cl)cc2C(c2c(F)cccc2OC)=NC3)ccc1C(=O)O + NC1CCC(NC2CC2c2ccccc2)CC1
IC50 (second compound 0.1 µM): > 1000 nM
IC50 (second compound 0.316 µM): > 1000 nM
IC50 (second compound 1 µM): > 1000 nM
IC50 (second compound 3.16 µM): > 1000 nM
IC50 (second compound 10 µM): > 1000 nM
viability, T/C [1]: 104%
viability, T/C [2]: 104%
viability, T/C [3]: 92.6%
viability, T/C [4]: 86.2%
viability, T/C (second compound 0.1 µM, first compound 0.316 µM): 90.3%
viability, T/C (second compound 0.1 µM, first compound 1 µM): 82.2%
viability, T/C [5]: 100%
viability, T/C [6]: 96%
viability, T/C [7]: 103%
viability, T/C [8]: 82.5%
viability, T/C (second compound 0.316 µM, first compound 0.316 µM): 89.7%
viability, T/C (second compound 0.316 µM, first compound 1 µM): 85%
viability, T/C [9]: 104%
viability, T/C [10]: 105%
viability, T/C [11]: 88.8%
viability, T/C [12]: 86.6%
viability, T/C (second compound 1 µM, first compound 0.316 µM): 92.5%
viability, T/C (second compound 1 µM, first compound 1 µM): 97.2%
viability, T/C [13]: 92.6%
viability, T/C [14]: 100%
viability, T/C [15]: 100%
viability, T/C [16]: 79.4%
viability, T/C (second compound 3.16 µM, first compound 0.316 µM): 104%
viability, T/C (second compound 3.16 µM, first compound 1 µM): 97.2%
viability, T/C [17]: 102%
viability, T/C [18]: 111%
viability, T/C [19]: 105%
viability, T/C [20]: 99.2%
viability, T/C (second compound 10 µM, first compound 0.316 µM): 102%
viability, T/C (second compound 10 µM, first compound 1 µM): 93.8%

Cn1ncnc1C1c2n[nH]c(=O)c3cc(F)cc(c23)NC1c1ccc(F)cc1 (stereo not given) + NC1CCC(NC2CC2c2ccccc2)CC1
IC50 (second compound 0.1 µM): > 100 nM
IC50 (second compound 0.316 µM): > 100 nM
IC50 (second compound 1 µM): > 100 nM
IC50 (second compound 3.16 µM): > 100 nM
IC50 (second compound 10 µM): > 100 nM
viability, T/C (second compound 0.1 µM, first compound 0.000316 µM): 121%
viability, T/C (second compound 0.1 µM, first compound 0.001 µM): 99.1%
viability, T/C [1]: 100%
viability, T/C [2]: 103%
viability, T/C [3]: 101%
viability, T/C [4]: 86.2%
viability, T/C (second compound 0.316 µM, first compound 0.000316 µM): 105%
viability, T/C (second compound 0.316 µM, first compound 0.001 µM): 102%
viability, T/C [5]: 93.6%
viability, T/C [6]: 115%
viability, T/C [7]: 92%
viability, T/C [8]: 103%
viability, T/C (second compound 1 µM, first compound 0.000316 µM): 104%
viability, T/C (second compound 1 µM, first compound 0.001 µM): 108%
viability, T/C [9]: 90.2%
viability, T/C [10]: 81.7%
viability, T/C [11]: 90.2%
viability, T/C [12]: 84%
viability, T/C (second compound 3.16 µM, first compound 0.000316 µM): 101%
viability, T/C (second compound 3.16 µM, first compound 0.001 µM): 101%
viability, T/C [13]: 101%
viability, T/C [14]: 103%
viability, T/C [15]: 101%
viability, T/C [16]: 94%
viability, T/C (second compound 10 µM, first compound 0.000316 µM): 111%
viability, T/C (second compound 10 µM, first compound 0.001 µM): 98%
viability, T/C [17]: 91.7%
viability, T/C [18]: 103%
viability, T/C [19]: 90.4%
viability, T/C [20]: 97.7%

NS(=O)(=O)OCC1CC(n2ccc3c(NC4CCc5ccccc54)ncnc32)CC1O (stereo not given) + NC1CCC(NC2CC2c2ccccc2)CC1
IC50 (second compound 0.1 µM): > 3000 nM
IC50 (second compound 0.316 µM): > 3000 nM
IC50 (second compound 1 µM): > 3000 nM
IC50 (second compound 3.16 µM): > 3000 nM
IC50 (second compound 10 µM): > 3000 nM
viability, T/C (second compound 0.1 µM, first compound 0.00949 µM): 98.6%
viability, T/C (second compound 0.1 µM, first compound 0.03 µM): 103%
viability, T/C (second compound 0.1 µM, first compound 0.0949 µM): 132%
viability, T/C (second compound 0.1 µM, first compound 0.3 µM): 133%
viability, T/C (second compound 0.1 µM, first compound 0.949 µM): 135%
viability, T/C (second compound 0.1 µM, first compound 3 µM): 144%
viability, T/C (second compound 0.316 µM, first compound 0.00949 µM): 92.8%
viability, T/C (second compound 0.316 µM, first compound 0.03 µM): 103%
viability, T/C (second compound 0.316 µM, first compound 0.0949 µM): 121%
viability, T/C (second compound 0.316 µM, first compound 0.3 µM): 135%
viability, T/C (second compound 0.316 µM, first compound 0.949 µM): 146%
viability, T/C (second compound 0.316 µM, first compound 3 µM): 147%
viability, T/C (second compound 1 µM, first compound 0.00949 µM): 114%
viability, T/C (second compound 1 µM, first compound 0.03 µM): 108%
viability, T/C (second compound 1 µM, first compound 0.0949 µM): 113%
viability, T/C (second compound 1 µM, first compound 0.3 µM): 142%
viability, T/C (second compound 1 µM, first compound 0.949 µM): 135%
viability, T/C (second compound 1 µM, first compound 3 µM): 121%
viability, T/C (second compound 3.16 µM, first compound 0.00949 µM): 98.5%
viability, T/C (second compound 3.16 µM, first compound 0.03 µM): 107%
viability, T/C (second compound 3.16 µM, first compound 0.0949 µM): 128%
viability, T/C (second compound 3.16 µM, first compound 0.3 µM): 141%
viability, T/C (second compound 3.16 µM, first compound 0.949 µM): 151%
viability, T/C (second compound 3.16 µM, first compound 3 µM): 151%
viability, T/C (second compound 10 µM, first compound 0.00949 µM): 90.1%
viability, T/C (second compound 10 µM, first compound 0.03 µM): 105%
viability, T/C (second compound 10 µM, first compound 0.0949 µM): 132%
viability, T/C (second compound 10 µM, first compound 0.3 µM): 135%
viability, T/C (second compound 10 µM, first compound 0.949 µM): 129%
viability, T/C (second compound 10 µM, first compound 3 µM): 102%
